Entries after “also recorded” stand apart in the source; their conditions may differ. Where two headings read alike, the source gives them in different places.
Tests used:
HCV replicon = HCV replicon antiviral assay in Huh7 cells, HCV RNA by RT-PCR, 72 hours; combinations analysed by Prichard-Shipman / Bliss independence; assay type: cell-based, hepatitis C virus
Method: Huh7 cells were maintained at 37° C., in an atmosphere of 5% CO2, in DMEM (Dulbecco's modified Eagle medium) supplemented with 2 mM L-glutamine, non-essential amino acids (NEAA), 10% fetal bovine serum (FBS) and […] geneticin. Cells were sub-divided at a 1:3 or 1:4 ratio every 2-3 days. 24 hours prior to the assay, Huh7 cells were collected, counted, plated in 96-well plates at 7,500 cells/well in […] standard maintenance medium, and incubated in the conditions above. To initiate the assay, culture medium was removed, and cells were washed once with PBS (phosphate buffer saline). For control compounds only, […] assay medium (DMEM with L-glutamine, NEAA, and 10% FBS) was added.
Test compounds were prepared as a 10× stock in assay medium. Serial dilutions of compounds in assay medium were added in a total volume of […] and the plates were then rocked to mix, and incubated as described above for 72 hours.
HCV RNA levels were measured using TaqMan® RT-PCR. Total cellular RNA was isolated and amplified by using a RealTime HCV assay (m1000™ Automated Sample Preparation System and M2000rt™ instrument for reverse transcription, PCR amplification, and detection/quantitation, Abbott Molecular Inc.), which detects and quantitates HCV genotypes 1-6. The molecular genotyping method targets the 5′-untranslated (UTR) region of the virus genome and is based on an amplification of the viral genome. […] A negative control, low positive control and high positive control were also introduced. Results are reported in International Units per ml (IU/ml), and 1 IU/ml=4.3 copies/ml. […]
The effects of drug combinations were evaluated according to the method described by Prichard & Shipman [Antiviral Res 1990, 14:181-205]. The theoretical additive effect was calculated from the dose-response curves of individual compounds by the equation Z=X+Y(1−X) (an equation referred to in the art as a Bliss independence model), where X and Y represent the inhibition produced by the individual compounds and Z represents the theoretical effect produced by the combination of compounds. […]

various proteases = test: Protease inhibition; assay type: biochemical
[1] = cited from earlier work

C=C[C@@H]1C[C@]1(NC(=O)[C@@H]1C[C@@H](OC(=O)N2Cc3cccc(F)c3C2)CN1C(=O)[C@@H](NC(=O)OC(C)(C)C)C(C)(C)C)C(=O)NS(=O)(=O)C1CC1 [GNS-227]
antiviral activity towards HCV (HCV replicon): an antiviral activity towards HCV
GNS-227 concentration at which synergy was best achieved (HCV replicon; in combination with HCQ): about 3.7 nM
protease inhibition activity (various proteases): exhibit inhibition activity on various proteases; also recorded: exhibit a protease inhibition activity

CCN(CCO)CCCC(C)Nc1ccnc2cc(Cl)ccc12 (centres unmarked) [HCQ, 2-[[4-[(7-chloro-4-quinolinyl)amino]pentyl]ethylamino]ethanol]
HCQ concentration at which synergy was best achieved (HCV replicon; in combination with GNS-227): about 6 μM
toxicity relative to chloroquine ([1]; in vivo): less toxic
toxicity relative to chloroquine ([1]; in vivo, listed as hydroxychloroquine): one-half as toxic
effectiveness relative to chloroquine ([1]; treating rheumatologic diseases): one-half to two-thirds as effective as chloroquine

CCN(CC)CCCC(C)Nc1ccnc2cc(Cl)ccc12 (centres unmarked) [chloroquine]
retinotoxicity relative to hydroxychloroquine ([1]; in vivo): much more retinotoxic
